One may read the IC50 as the concentration that gives 50% inhibition.

Structures can show the parent of a compound that is named as a salt. Bounds are passed on as bounds.

HPK1, sequence (Q92918 whole entry): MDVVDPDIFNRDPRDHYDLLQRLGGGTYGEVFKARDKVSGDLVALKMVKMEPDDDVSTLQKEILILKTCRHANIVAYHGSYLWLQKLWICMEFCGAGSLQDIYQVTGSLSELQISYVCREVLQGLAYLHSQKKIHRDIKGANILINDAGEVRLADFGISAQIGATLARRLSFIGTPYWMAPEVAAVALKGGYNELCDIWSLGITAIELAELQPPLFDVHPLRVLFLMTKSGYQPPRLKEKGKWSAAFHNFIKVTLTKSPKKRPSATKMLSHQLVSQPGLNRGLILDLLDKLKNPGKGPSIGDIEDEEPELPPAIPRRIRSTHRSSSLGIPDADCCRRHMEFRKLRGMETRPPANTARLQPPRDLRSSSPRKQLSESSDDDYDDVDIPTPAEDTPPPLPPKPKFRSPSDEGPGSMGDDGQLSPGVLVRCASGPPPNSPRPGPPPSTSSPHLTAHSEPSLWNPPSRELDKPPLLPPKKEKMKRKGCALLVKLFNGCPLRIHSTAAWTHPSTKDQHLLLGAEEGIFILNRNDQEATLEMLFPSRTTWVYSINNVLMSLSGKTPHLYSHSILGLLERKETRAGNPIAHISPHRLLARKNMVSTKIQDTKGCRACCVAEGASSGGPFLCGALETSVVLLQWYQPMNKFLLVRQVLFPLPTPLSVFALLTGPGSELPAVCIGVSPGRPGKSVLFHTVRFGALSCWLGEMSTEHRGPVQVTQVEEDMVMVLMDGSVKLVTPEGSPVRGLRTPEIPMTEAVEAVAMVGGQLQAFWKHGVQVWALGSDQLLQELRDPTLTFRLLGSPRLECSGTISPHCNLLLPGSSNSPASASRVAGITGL

In the test the target is HPK1 (Homo sapiens (Human), UniProt Q92918). The experiment in a line: HPK1 biochemical enzyme assay (microfluidic mobility shift assay). The conditions noted are these: 1.5 nM HPK1, ATP 1 mM final, 30 min preincubation, 60 min at RT, Caliper EZ Reader; read-out: HPK1 1000UMATP caliper IC50. The method, boiled down:
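Mobility shift readout of HPK1 activity after a 60 min RT reaction with 1 mM ATP, 1 μM substrate and 5 mM MgCl2. Enzyme/substrate mix was first exposed to compounds for 30 min, using ten-point curves topping at 3 μM final.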
As to `CN1CC(O)(C2CCCN(c3ccc(Nc4ccc(-c5cnc6cc(F)ccn56)c5c4C(=O)NC5)nc3)C2)C1` (stereo in doubt) [I-679, (S)-4-(7-fluoroimidazo [1,2-a]pyridin-3-yl)-7-((5-(3-(3-hydroxy-1-methylazetidin-3-yl)piperidin-1-yl)pyridin-2-yl)amino)isoin-dolin-1-one], the half-inhibitory concentration (IC50) was less than 100 nM. Then `O=C1NCc2c(-c3cnc4cc(F)ccn34)ccc(Nc3ccc(CN4CCOCC4)cn3)c21` [I-238, 4-(7-fluoroimidazo [1,2-a]pyridin-3-yl)-7-[[5-(morpholino-methyl)-2-pyripyl]amino] isoindolin-1-one], with less than 100 nM; and `O=C1NCc2c(-c3cnc4cnccn34)ccc(Nc3ccc(N4CCOC(CO)C4)cn3)c21` (stereo not shown) [I-358, 7-((5-(2-(hydroxymeth-yl)morpholino)-pyridin-2-yl)amino)-4-(imidazo[1,2-a]pyrazin-3-yl)isoindolin-1-one], with less than 100 nM; and `CC(C)n1ccc2c(-c3ccc(Nc4ccc(N5CCN(C)CC5)cn4)c4c3CNC4=O)ccnc21` [I-48, 4-(1-isopropylpyrrolo [2,3-b]pyridin-4-yl)-7-[[5-(4-methylpiperazin-1-yl)-2-pyridyl]amino] isoindolin-1-one], with 100 to 1000 nM. Turning to `Cn1nc(Nc2ccc(-c3cnc4cc(F)ccn34)c3c2C(=O)NC3)cc1C1CCOCC1` [I-408], the IC50 is less than 100 nM. Next, `CN(C)Cc1nc(Nc2ccc(-c3cnc4cc(F)ccn34)c3c2C(=O)NC3)ccc1N1CCO[C@H](C(C)(C)O)C1` [I-774, (S)-7-((6-((dimethylamino)-methyl)-5-(2-(2-hydroxypropan-2-yl)morpho-lino)pyridin-2-yl)amino)-4-(7-fluoroimidazo [1,2-a]pyridin-3-yl)isoindolin-1-one]: less than 100 nM. Then `CC1(O)CCN(c2ccc(Nc3ccc(-c4cnc5cnccn45)c4c3C(=O)NC4)nc2)CC1` [I-313, 7-((5-(4-hydroxy-4-methylpiperidin-1-yl)pyridin-2-yl)amino)-4-(imidazo[1,2-a]pyrazin-3-yl)isoindolin-1-one], with less than 100 nM; and `CN1CCN(c2ccc(Nc3cnc(-c4ccnc5c4ccn5C)c4c3C(=O)NC4)nc2)CC1` [I-18, 7-[[5-(4-methylpiperazin-1-yl)-2-pyridyl]amino]-4-(1-methylpyrrolo [2,3-b]pyridin-4-yl)-2,3-dihydropyrrolo [3,4-c]pyridin-1-one], with less than 100 nM. `O=C1NCc2c(-c3ccnn4ccnc34)ncc(Nc3ccc(N4CCC(O)CC4)cn3)c21` [I-565, 7-((5-(4-hydroxypiperidin-1-yl)pyridin-2-yl)amino)-4-(imidazo[1,2-b]pyridazin-8-yl)-2,3-dihydro-1H-pyrrolo[3,4-c]pyridin-1-one]: the half-maximal inhibitory concentration (IC50) was more than 1000 nM. Then `CN(C)Cc1nc(Nc2ccc(-c3cnc4cnccn34)c3c2C(=O)NC3)ccc1[C@@H]1CCOC1` [I-714, (S)-7-((6-((dimethylamino)-methyl)-5-(tetrahydrofuran-3-yl)pyridin-2-yl)amino)-4-(imidazo[1,2-a]pyrazin-3-yl)isoindolin-1-one], with less than 100 nM; and `CN1CCN(CC2(O)CCN(c3ccc(Nc4ccc(-c5cnc6cnccn56)c5c4C(=O)NC5)nc3)CC2)CC1` [I-412, 7-((5-(4-hydroxy-4-((4-methylpiperazin-1-yl)methyl)piper-idin-1-yl)pyridin-2-yl)amino)-4-(imidazo[1,2-a]pyrazin-3-yl)isoindolin-1-one], with less than 100 nM. Consider `O=C1NCc2c(-c3cnc4cc(F)ccn34)ccc(Nc3ccc(N4CCCC(N5CCOCC5)C4)cn3)c21` (stereo not shown) [I-476, Formic acid salt 4-(7-fluoroimidazo [1,2-a]pyridin-3-yl)-7-[[5-(3-morpholino-1-piperidyl)-2-pyridyl]amino] isoindolin-1-one], for which the IC50 is less than 100 nM. With `O=C1NCc2c(-c3cnc4c(F)cccn34)ccc(Nc3ccc(N4CCOCC4)cn3)c21` [I-156, 4-(8-fluoroimidazo [1,2-a]pyridin-3-yl)-7-[(5-morpholino-2-pyridyl)amino] isoindolin-1-one], the IC50 is less than 100 nM. With `CN1CCN(c2ccc(Nc3ccc(-c4cnc5cccnn45)c4c3C(=O)NC4)nc2)CC1` [I-59, 4-imidazo[1,2-b]pyridazin-3-yl-7-[[5-(4-methylpiperazin-1-yl)-2-pyridyl]amino] isoindolin-1-one], the IC50 was less than 100 nM. For `CN(C)C(C)(C)C1CN(c2ccc(Nc3cnc(-c4ccnc5c4ccn5C)c4c3C(=O)NC4)nc2)CCO1` (stereo not shown) [I-668], the IC50 was less than 100 nM. In the case of `CN(C)Cc1nc(Nc2ccc(-c3cnc4cc(F)ccn34)c3c2C(=O)NC3)ccc1[C@@H]1CCN(C)C(=O)C1` [I-557, (R)-7-((6-((dimethylamino)-methyl)-5-(1-methyl-2-oxopiperidin-4-yl)pyridin-2-yl)amino)-4-(7-fluoroimidazo [1,2-a]pyridin-3-yl)isoindolin-1-one], the IC50 is less than 100 nM. Next, `Cn1ccc2c(-c3ccc(Nc4ccc(N5CCC(O)CC5)cn4)c4c3CNC4=O)cnc-2c1` [I-362, 7-((5-(4-hydroxy-piperidin-1-yl)pyridin-2-yl)amino)-4-(6-methyl-6H-pyrrolo[2,3-c]pyridin-3-yl)isoindolin-1-one]: less than 100 nM; “7-[[5-(4-hydroxy-1- piperidyl)-2-pyridyl] amino]-4-imidazo[1,2- a]pyridin-3-yl- isoindolin-1-one [I-125]”: less than 100 nM; `CN(C)Cc1nc(Nc2cnc(-c3ccnc4[nH]ccc34)c3c2C(=O)NC3)ccc1[C@H]1CCOC1` [I-767, (R)-7-((6-((dimethylamino)-methyl)-5-(tetrahydrofuran-3-yl)pyridin-2-yl)amino)-4-(1H-pyrrolo[2,3-b]pyridin-4-yl)-2,3-dihydro-1H-pyrrolo[3,4-c]pyridin-1-one]: less than 100 nM. Then `C[C@@H]1CC[C@](C)(O)CN1c1ccc(Nc2ccc(-c3cnn4c3CCCC4)c3c2C(=O)NC3)nc1` (stereo in doubt) [I-597, 7-((5-((2S,5S)-5-hydroxy-2,5-dimethyl-piperidin-1-yl)pyridin-2-yl)amino)-4-(4,5,6,7-tetrahydropyra-zolo[1,5-a]pyridin-3-yl)isoindolin-1-one], with less than 100 nM. Then `Cn1ccc2c(-c3ncc(Nc4ccc(N5CCO[C@H](C(C)(C)O)C5)cn4)c4c3CNC4=O)ccnc21` [I-471, 7-[[5-[(2S)-2-(1-hydroxy-1-methyl-ethyl)morpholin-4-yl]-2-pyridyl]amino]-4-(1-methylpyrrolo [2,3-b]pyridin-4-yl)-2,3-dihydropyrrolo [3,4-c]pyridin-1-one], with less than 100 nM.

Regarding `Cc1cc(Nc2ccc(N3CCC(O)CC3)cn2)c2c(c1-c1cnc3cc(F)ccn13)CNC2=O` [I-389, 4-(7-fluoroimidazo [1,2-a]pyridin-3-yl)-7-((5-(4-hydroxypiperidin-1-yl)pyridin-2-yl)amino)-5-methylisoindol in-1-one], the IC50 is less than 100 nM. On to `CN1CCN(c2ccc(Nc3ccc(-c4ccnc5c4ccn5C4CC4)c4c3C(=O)NC4)nc2)CC1` [I-265, 4-(1-cyclopropyl-1H-pyrrolo[2,3-b]pyridin-4-yl)-7-((5-(4-methylpiperazin-1-yl)pyridin-2-yl)amino)isoin-dolin-1-one], for which the half-inhibitory concentration (IC50) is less than 100 nM. Next, `Cn1ccc2c(-c3ncc(Nc4ccc(N5CCC(O)(CN6CCOCC6)CC5)cn4)c4c3CNC4=O)ccnc21` [I-343, 7-((5-(4-hydroxy-4-(morpholinomethyl)piperidin-1-yl)pyridin-2-yl)amino)-4-(1-methyl-1H-pyrrolo[2,3-b]pyridin-4-yl)-2,3-dihydro-1H-pyrrolo[3,4-c]pyridin-1-one]: less than 100 nM; `O=C1NCc2c(-c3cnc4cc(F)ccn34)ccc(Nc3cccc(N4CC(O)C4)n3)c21` [I-323, 4-(7-fluoroimidazo [1,2-a]pyridin-3-yl)-7-((6-(3-hydroxyazeti-din-1-yl)pyridin-2-yl)amino)isoin-dolin-1-one]: more than 1000 nM; `O=C1NCc2c(-c3cnc4cc(F)ccn34)ccc(Nc3ccc([C@@H]4CCOC4)c(CN4CCC(F)(F)C4)n3)c21` [I-718, (S)-7-((6-((3,3-difluoropyrro-lidin-1-yl)methyl)-5-(tetrahydrofuran-3-yl)pyridin-2-yl)amino)-4-(7-fluoroimidazo [1,2-a]pyridin-3-yl)isoindolin-1-one]: less than 100 nM.

Regarding `O=C1NCc2c(-c3c[nH]c4ccccc34)ncc(Nc3ccc(N4CCNCC4)cn3)c21` [I-1, 4-(1H-indol-3-yl)-7-[(5-piperazin-1-yl-2-pyridyl)amino]-2,3-dihydropyrrolo [3,4-c]pyridin-1-one], the IC50 fell in the range of 100 to 1000 nM. Then `O=C1NCc2c(-c3cnc4cc(F)ccn34)ccc(Nc3ccc(N4CCO[C@H](CO)C4)cn3)c21` [I-454, 4-(7-fluoroimidazo [1,2-a]pyridin-3-yl)-7-[[5-[(2S)-2-(hydroxymeth-yl)morpliolin-4-yl]-2-pyridyl]amino] isoindolin-1-one], with less than 100 nM; and `O=C1NCc2c(-c3cnc4cc(F)ccn34)ccc(Nc3ccc([C@H]4CCOC4)c(CN4CC[C@H](F)C4)n3)c21` (stereo in doubt) [I-735, 4-(7-fluoroimidazo [1,2-a]pyridin-3-yl)-7-((6-(((S)-3-fluoropyrrol-idin-1-yl)methyl)-5-((S)-tetrahydrofuran-3-yl)pyridin-2-yl)amino)isoin-dolin-1-one], with less than 100 nM. In the case of `CN1CCN(c2ccc(Nc3ccc(-c4cnn5cccnc45)c4c3C(=O)NC4)nc2)CC1` [I-112, 7-[[5-(4-methylpiperazin-1-yl)-2-pyridyl]amino]-4-pyrazolo[1,5-a]pyrimidin-3-yl-isoindolin-1-one], the half-maximal inhibitory concentration (IC50) is less than 100 nM. Then `O=C1NCc2c(-c3cnc4cc(F)ccn34)ccc(Nc3ccc(N4CCC[C@@H](N5CCOCC5)C4)cn3)c21` [I-502, (R)-4-(7-fluoroimidazo [1,2-a]pyridin-3-yl)-7-((5-(3-morpholinopip-eridin-1-yl)pyridin-2-yl)amino)isoin-dolin-1-one], with less than 100 nM.

Source of the values: US11021481B2, “Substituted isoindolin-1-ones and 2,3-dihydro-1h-pyrrolo[3,4-c]pyridin-1-ones as HPK1 antagonists” (Nimbus Saturn, Inc., priority 2019, dated 2021).
